Test results: PMC11984407, “A natural small molecule isoginkgetin alleviates hypercholesterolemia and atherosclerosis by targeting ACLY” (Theranostics, 2025)

Tests used:
HepG2 cell line = assay: CCK8 cell viability, HepG2; type: cell-based; conditions: concentrations below 7.5 μmol/L, 12 h
Experimental: The cellular viability was assessed by conducting CCK8 assays in primary hepatocytes from C57BL/6J mouse and HepG2 cell line. Specifically, 2,000 cells per well were plated in 96-well plates and cultured with different concentrations of ISOGK for 12 h. Following this, cell absorption was quantified using a CCK8 kit (CA1210, Solarbio, Beijing, China), adhering strictly to the manufacturer's guidelines. The presented data represents the findings from three independent experiments, with each experiment consisting of four replicates.

hERG channel = target: T1, hERG channel (Homo sapiens, UniProt Q12809); assay: Manual whole-cell patch clamp on HEK cells stably expressing hERG; type: cell-based
T1 construct: expressed in transfected cells
T1 sequence (Q12809 whole entry): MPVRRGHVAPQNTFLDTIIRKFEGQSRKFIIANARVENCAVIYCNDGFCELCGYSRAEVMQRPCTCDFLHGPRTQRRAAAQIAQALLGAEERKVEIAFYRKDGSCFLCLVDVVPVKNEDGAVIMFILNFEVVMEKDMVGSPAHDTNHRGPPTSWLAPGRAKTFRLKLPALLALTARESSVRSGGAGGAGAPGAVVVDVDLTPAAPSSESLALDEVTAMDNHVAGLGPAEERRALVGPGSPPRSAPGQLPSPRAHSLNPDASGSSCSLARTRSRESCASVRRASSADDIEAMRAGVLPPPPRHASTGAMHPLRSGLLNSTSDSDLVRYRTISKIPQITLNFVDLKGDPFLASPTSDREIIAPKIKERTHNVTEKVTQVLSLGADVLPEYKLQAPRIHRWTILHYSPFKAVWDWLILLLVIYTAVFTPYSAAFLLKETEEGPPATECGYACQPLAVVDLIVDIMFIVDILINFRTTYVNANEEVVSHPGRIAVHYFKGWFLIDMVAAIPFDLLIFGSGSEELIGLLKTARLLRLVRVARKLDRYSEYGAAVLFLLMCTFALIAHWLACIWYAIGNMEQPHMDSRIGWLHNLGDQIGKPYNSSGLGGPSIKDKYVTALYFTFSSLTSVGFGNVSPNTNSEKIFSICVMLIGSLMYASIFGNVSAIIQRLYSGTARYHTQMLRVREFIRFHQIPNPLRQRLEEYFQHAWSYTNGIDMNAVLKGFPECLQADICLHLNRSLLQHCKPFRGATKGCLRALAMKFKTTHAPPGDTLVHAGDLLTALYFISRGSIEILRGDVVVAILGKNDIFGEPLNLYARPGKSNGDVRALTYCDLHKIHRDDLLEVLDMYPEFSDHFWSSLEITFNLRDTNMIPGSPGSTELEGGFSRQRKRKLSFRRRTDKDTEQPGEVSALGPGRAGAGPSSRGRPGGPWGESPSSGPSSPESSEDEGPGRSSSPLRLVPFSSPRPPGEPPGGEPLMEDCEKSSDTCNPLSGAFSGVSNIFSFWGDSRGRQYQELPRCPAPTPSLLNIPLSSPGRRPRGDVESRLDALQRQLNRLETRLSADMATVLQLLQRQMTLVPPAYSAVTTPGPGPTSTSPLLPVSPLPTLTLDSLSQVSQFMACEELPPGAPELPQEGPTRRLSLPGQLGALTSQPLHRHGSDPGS
Experimental: The whole-cell patch clamp technique was employed for the experiments. Previously published works detail the methodologies and solutions used for capturing various currents in cardiomyocytes and in HEK cell lines that stably express different K^+ channels. Specifically, the standard bath solution with 5 mM K^+ consisted of 135 mM NaCl, 5 mM KCl, 2 mM CaCl2, 1 mM MgCl2, 10 mM glucose, and 10 mM HEPES, adjusted to pH 7.4 using NaOH. Meanwhile, the bath solution containing 135 mM K^+ was made of 135 mM KCl, 2 mM CaCl2, 1 mM MgCl2, 10 mM glucose, and 10 mM HEPES, with the pH set to 7.4 by adding KOH. All experiments using the patch clamp method were conducted at a controlled room temperature of 22 ± 1 °C.

[1] = Copper-induced LDL oxidation, agarose gel electrophoresis; conditions: varying concentrations, copper 5 μM
Experimental: Prior to oxidation, EDTA was removed from LDL solutions (YB-001; Yiyuan Biotechnologies, Guangzhou, China). Subsequently, LDL solutions at a concentration of 0.2 mg/mL were incubated with varying concentrations of ISOGK in PBS for one h at 37 °C. The oxidation process was initiated by combining both native LDL and LDL pretreated with ISOGK with copper sulfate (99.0% purity; Jinshanting New Chemical Reagent Factory, Shanghai, China) to achieve a final copper concentration of 5 μM in PBS. This mixture was then incubated at 37 °C. Agarose gel electrophoresis was performed utilizing 0.5% agarose gels prepared in a sodium barbital buffer, following the stipulated electrophoretic methodology. The procedure was carried out in a 0.075 M sodium barbital buffer at a constant voltage of 55 V for a duration of one h. The relative electrophoretic mobility (REM) was determined by calculating the ratio of the migration distance of oxidized LDL to that of native LDL.

Apoe-/- mice = assay: Liver Acly knockdown by GalNAc-siAcly in Apoe-/- mice; type: in vivo, mouse
Experimental: Conjugating siRNA with N-acetylgalactosamine (GalNAc) is a promising strategy for depleting target gene expression specifically in the liver. […] In this study, we employed GalNAc-siAcly to knock down Acly in the liver of Apoe^-/- mice that were fed high cholesterol diet for 15 weeks. ISOGK was administered starting from the 7th week for 8 additional weeks (Figure 7A). […] The qRT-PCR results also supported the same conclusion (Figure S7A).
Figure 7 The anti-atherosclerotic and lipid-lowering effects of isoginkgetin in Apoe^-/- mice were ACLY-dependent. (A) Scheme of study design. Briefly, male Apoe^-/- mice were induced by high cholesterol diet for 7 weeks and administrated GalNAc-siAcly (3 mg/kg/month). Animals then received ISOGK (20 mg/kg/day) treatment for another 8 weeks. (B) Immunoblotting analysis and quantification of ACLY protein in liver and kidney tissues from indicated groups (n = 3). One-way ANOVA followed by Bonferroni's post hoc test. (C) Representative images of Oil Red O staining of en face aortas from male Apoe^-/- mice fed high cholesterol diet. (D) Representative images of ORO staining of the aortic sinus from male Apoe^-/- mice fed high cholesterol diet. (E) Representative images of H&E staining of the aortic sinus from male Apoe^-/- mice fed High cholesterol diet. (F) Quantitative analysis of C-E (n = 6 - 8). One-way ANOVA followed by Bonferroni's post hoc test. (G) Plasma levels of TC, TG, LDL-C and HDL-C in the indicated groups (n = 6 - 8). One-way ANOVA followed by Bonferroni's post hoc test. The data are means ± SEM, n.s., not significant, *P < 0.05, **P < 0.01, ***P < 0.001, ****P < 0.0001.

## COc1ccc(-c2cc(=O)c3c(O)cc(O)c(-c4cc(-c5cc(=O)c6c(O)cc(O)cc6o5)ccc4OC)c3o2)cc1 [ISOGK, Isoginkgetin]
HepG2 cell line
  cytotoxicity (CCK-8): no significant cytotoxicity
hERG channel
  IC50: > 30 µM
[1]
  antioxidant activity against copper-induced LDL oxidation (REM): no antioxidant activity
Apoe-/- mice; Acly knockdown Apoe-/- mice
  effect on atherosclerosis in aortic sinus: not observed
  lipid-lowering effect (plasma TC, TG, LDL-C, HDL-C): not further observed
Apoe-/- mice; Acly knockdown group (GalNAc-siAcly), 20 mg/kg/day
  aortic plaque area: not decreased further
Apoe-/- mice; control Apoe-/- mice, 20 mg/kg/day
  aortic sinus lesion areas and necrotic core area: significantly reduced
Apoe-/- mice; control Apoe-/- mice, 20 mg/kg/day, 8 weeks
  size of aortic plaques vs vehicle: significantly lower
